What was measured:
SERCA = experiment: Ca-ATPase assay, microsomal preparations from HEK 293 cells; type: biochemical, human
Method: A Ca-ATPase assay was performed using microsomal preparations from HEK 293 cells at a series of calcium concentrations corresponding to the physiological range, relative to controls. The ATP hydrolysis rate was measured over a range of calcium concentrations in the presence of test compounds using an NADH-linked, enzyme-coupled ATPase assay adapted for 96-well microplates, with Vmax determined by fitting the ATPase calcium-dependence to the Hill function. […] CaCl2 was added to set free [Ca^2+] to the specific values.

ob/ob mice = experiment: Insulin tolerance test (ITT); type: in vivo, mouse; settings: day 10 post-injection, compared with vehicle
Method: Both glucose (GTT) and insulin (ITT) tolerance tests were performed following a 10-hr fast and an additional 2-hr after CDNs injection with baseline blood glucose measurement taken before the beginning of the test. For the GTT, D-glucose dissolved in 0.9% NaCl was delivered intraperitoneally at a dose of 1 g/kg. The blood glucose level was measured 0, 15, 30, 60, 90, and 120 min after glucose administration. For the ITT, insulin was administered intraperitoneally at a dose of 1 IU/kg. The blood glucose level was measured 0, 15, 30, 60, 90, and 120 min after insulin administration. Glucose levels were measured in blood samples drawn from the tail vein using OneTouch Ultra 2 Meter (LifeScan, Inc.).

PERK, elF2α, CHOP = experiment: Liver protein markers of ER stress (western blot); type: in vivo, mouse; settings: liver of ob/ob mice, 50 mg/kg
Method: Proteins were analyzed by western blot and quantified. Bands were normalized to GAPDH and expressed as 100% of ob/ob+vehicle (ob). Liver tissues were homogenized with a bench-top homogenizer in an ice-cold tissue lysis buffer. The homogenized samples were centrifuged at 8,000×g for 20 min at 4° C. The lipid layer was removed and the supernatant was transferred into Eppendorf tubes. After centrifuging at 16,000×g for 60 min at 4° C., the supernatants were normalized to the same concentration and boiled at 100° C. in 1× Laemmli buffer for 5 min. The lysate was cooled to room temperature before loading for Western blot analysis. Protein lysate was resolved on SDS polyacrylamide gel and transferred onto PVDF membrane at a voltage of 100 V for 2 hrs at 4° C. The membrane was blocked in 10% blocking reagent and incubated overnight with a primary antibody in Tris-buffered saline solution/Tween (TBST)/10% blocking reagent at 4° C. After incubation, the membrane was washed three times in TBST for 20 min and incubated at room temperature with a secondary antibody in TBST/10% blocking reagent for 1 hr. The membrane was washed three times for 20 min and developed using a chemiluminescence assay system. To strip a membrane for another primary antibody, the membrane was agitated at 50° C. for 20 min in a box with stripping buffer (2% SDS and 100 mM 2-mercaptoethanol in TBS, pH 7.5). […]

[1] = tested on: G6PAse, PEPCK, SCD1, DGAT2, FASn, SREBP1c, PPARα, PGC1α; experiment: Liver expression of gluconeogenesis and lipogenesis genes (real-time PCR); type: in vivo, mouse; settings: liver of ob/ob mice
Method: The expression of key genes involved in gluconeogenesis and lipogenesis was measured. RNA was isolated from liver samples of the ob/ob mice and mRNA expression of the indicated genes was quantified by Real-time PCR using iTaq Fast SYBR Green Supermix with ROX (Bio-Rad) in a 7500 Real-Time PCR systems (Applied Biosystems) using mouse specific primers. Gene expression is normalized to 18s. RNA was isolated using Trizol (Invitrogen). cDNA was generated using High Capacity cDNA Reverse Transcription kit (Applied Biosystems). Real-time PCR was performed with iTaq Fast SYBR Green Supermix with ROX (Bio-Rad) in 7500 Real-Time PCR systems (Applied Biosystems) using mouse specific primers. Gene expression was normalized to 18s. Isolated liver tissue was homogenized in RIPA buffer containing protease inhibitors and phosphatase inhibitors (Roche). Protein samples were matched for their protein concentrations and 30 micrograms of each sample were applied to SDS-PASE and transferred onto nitrocellulose membrane. Membranes were then incubated with the corresponding phosphor or total primary antibodies specific for the desired proteins followed by incubation with appropriate secondary antibodies conjugated to horseradish peroxidase (Pierce) and signal intensities were visualized by Chemiluminescence (Pierce). Films from at least four independent experiments were scanned and densities of the immunoreactive bands were evaluated using NIH Image software. GAPDH (Santa Cruz Biotechnology) was used as a loading control.

[2] = tested on: HeLa cells overexpressing BI-1; experiment: Effect on [Ca2+]ER, ER cameleon in HeLa cells overexpressing BI-1; type: cell-based; settings: HeLa cells overexpressing BI-1, treated 24 hrs
Method: To directly measure ER Ca^2+ content, a genetically encoded Ca^2+ indicator, ER cameleon, was used. HeLa cells were transfected with ER-cameleon encoding plasmid for 2 days before analysis. Cells were treated with a test compound for 24 hrs and imaged in Ca^2+-free HBSS upon addition of thapsigargin to deplete ER stores. Emission ratio imaging of the ER cameleon was accomplished using a 430/24 excitation filter, 450-nm dichroic mirror, and two emission filters (475/40 for CFP and 535/25 for YFP). The fluorescence ratio of YFP/CFP is a measure of relative ER Ca^2+ levels.

Cc1ccc2cccc(NC(=O)c3ccc(OC(C)C)cc3)c2n1 [Compound A12, 4-Isopropoxy-N-(2-methylquinolin-8-yl)benzamide]
Vmax of a SERCA (SERCA): significantly increased | insulin-stimulated glucose deposal (ITT) (ob/ob mice): strongly enhanced | expression of CHOP (PERK, elF2α, CHOP): significantly reduced | phosphorylation of PERK and elF2α (PERK, elF2α, CHOP): significantly reduced | expression of PPARα and its target PGC1α [1]: increased | mRNA expression of G6PAse and PEPCK [1]: significantly reduced | mRNA expression of lipogenic genes (SCD1, DGAT2, FASn, SREBP1c) [1]: significantly reduced | [Ca2+]ER [2]: significantly restored
